Laboratory results reported in patent US4582845A, “Pharmaceutical composition for injection” (Sumitomo Pharmaceuticals Co., Ltd., priority 1980, dated 1986).
≈ marks a conversion by molar mass, not a printed value.

Legend:
Type in all cases: physicochemical
[1] = Solubility in solutions of basic substances (Experimental Example 7)
Procedure: (§1) Excess amounts of the Compound A were dispersed in aqueous solutions containing various surfactants and additives, respectively. In each case, the solubility of the compound was determined by measuring the light absorbance at 277 nm with the filtrate. For non-aqueous vehicles marked with *, the corresponding solubility of the compound was judged by eye-measurement.
Using the same procedures as stated in Experimental Example 6, solubility measurements were carried out.

[2] = Solubility in aqueous solutions of surfactants/additives and non-aqueous vehicles (Experimental Example 6)
Procedure: as §1

[3] = Coloration of Compound A on exposure to oxygen, heat or light
Solubility in water = settings: 25° C., as free base form

## NC(=O)c1nc[nH]c1O [Compound A, 4-carbamoyl-5-hydroxyimidazole]
[1]; pH 8.2, 5% L-lysine, pH of solvent 8.20
  solubility: 10700 µg/mL (≈ 84.2 mM)
[1]; pH 8.42, aqueous buffer, NaHCO3-Na2CO3 buffer, pH of solvent 8.42
  solubility: 26700 µg/mL (≈ 210 mM)
[1]; pH 8.44, 5% borax, pH of solvent 8.44
  solubility: 22200 µg/mL (≈ 175 mM)
[1]; pH 8.5, 0.5% NaOH, pH of solvent 8.50
  solubility: 21400 µg/mL (≈ 168 mM)
[1]; pH 8.56, 5% trishydroxy methylamino methane, pH of solvent 8.56
  solubility: 25700 µg/mL (≈ 202 mM)
[1]; pH 8.64, 1% ethanolamine, pH of solvent 8.64
  solubility: 24900 µg/mL (≈ 196 mM)
[1]; pH 8.69, 5% L-arginine, pH of solvent 8.69
  solubility: 33500 µg/mL (≈ 264 mM)
[2]; 5% amycol no. 1
  solubility: 5100 µg/mL (≈ 40.1 mM)
[2]; 5% ethylurea
  solubility: 5600 µg/mL (≈ 44.1 mM)
[2]; 5% levulinic acid
  solubility: 6300 µg/mL (≈ 49.6 mM)
[2]; 5% nicotinic amide
  solubility: 7200 µg/mL (≈ 56.6 mM)
[2]; 5% polyoxyethylene hydrogenated castor oil, organic solvent or mixture
  solubility: 4500 µg/mL (≈ 35.4 mM)
[2]; 5% polyoxyethylene sorbitan monooleate
  solubility: 4600 µg/mL (≈ 36.2 mM)
[2]; 5% sodium lauryl sulfate
  solubility: 4700 µg/mL (≈ 37 mM)
[2]; 5% sodium salicylate
  solubility: 6500 µg/mL (≈ 51.1 mM)
[2]; 5% tartaric acid
  solubility: 7000 µg/mL (≈ 55.1 mM)
[2]; 10% mannitol
  solubility: 4600 µg/mL (≈ 36.2 mM)
[2]; 10% sodium deoxycholate
  Solubility (in words): white gel
[2]; corn oil, organic solvent or mixture
  solubility: < 2000 µg/mL
[2]; cotton seed oil, organic solvent or mixture
  solubility: < 2000 µg/mL
[2]; ethanol, organic solvent or mixture
  solubility: < 2000 µg/mL
[2]; glycerine, organic solvent or mixture
  solubility: ~3000 µg/mL (≈ 23.6 mM)
[2]; n,n-dimethylacetamide, organic solvent or mixture
  solubility: < 2000 µg/mL
[2]; polyethylene glycol, organic solvent or mixture
  solubility: < 2000 µg/mL
[2]; propylene glycol, organic solvent or mixture
  solubility: ~5000 µg/mL (≈ 39.3 mM)
[2]; saturated aspartic acid
  solubility: 5400 µg/mL (≈ 42.5 mM)
[2]; saturated gentisic acid
  Solubility (in words): white gel
[2]; saturated glutamic acid
  solubility: 5300 µg/mL (≈ 41.7 mM)
[2]; sesame oil, organic solvent or mixture
  solubility: < 2000 µg/mL
[2]; water
  solubility: 4700 µg/mL (≈ 37 mM)
[3]
  coloration / instability: so unstable that it is easily colored upon exposure to oxygen, heat, or light
Solubility in water
  solubility: ~4700 µg/mL (≈ 37 mM)
